Read-outs that look alike come from different tables or passages of the source.
Assays:
[1] = cited from earlier work; for T½: as printed in head of release profile table, Example 3
[2] = FIG. 2A, IR administration (memantine 20 mg bid, lamotrigine 200 mg qd); cited from earlier work
[3] = Release profile (cumulative fraction released from formulation matrix to serum or gut environment); format: physicochemical
mouse electroshock model = assay: Dose ranging study in seizure model (mouse electroshock model); format: in vivo; conditions: seizure model (e.g., mouse electroshock model)
Text: An isobolic experiment ensues where the drugs are combined in fractions of their EDXXs to add up to ED100 (i.e., ED50:ED50, ED25:ED75, etc.). The plot of the data is constructed. The experiment points that lie below the straight line between the ED50 points on the graph are indicative of synergy, points on the line are indicative of additive effects, and points above the line are indicative of inhibitory effects. The point of maximum deviation from the isobolic line is the optimal ratio. This is the optimal steady state ratio (Cratio,ss) and is adjusted based upon the component half-lives. Similar protocols may be applied in a wide variety of validated animal models.

Structure (SMILES)	Human PK (t½) ([1]; humans) [h]	Tmax ([1]; humans) [h]	Tmax [2] [h]	T½ [2] [h]	Human PK (t½) in hrs ([1]; humans) [hr for hrs]	cum. fraction ([3]; Time 1)	cum. fraction ([3]; Time 2)	cum. fraction ([3]; Time 4)	cum. fraction ([3]; Time 8)	cum. fraction ([3]; Time 12)	cum. fraction ([3]; Time 16)	cum. fraction ([3]; Time 20)	cum. fraction ([3]; Time 24)	ED50 (mouse electroshock model)	T½ [1]
NCC1(CC(=O)O)CCCCC1 [Gabapentin]	6	3													
Nc1nnc(-c2cccc(Cl)c2Cl)c(N)n1 [Lamotrigine]	12	2	2	12											
NC(=O)N1c2ccccc2CC(=O)c2ccccc21 [Oxcarbazepine]		4.5			2										
CC12CC3CC(C)(C1)CC(N)(C3)C2 [Memantine, 1-amino-3,5-dimethyladamantane]			3			0.2	0.3	0.4	0.5	0.6	0.7	0.8	0.9	approximately 12 μM	MEMANTINE T½ = 60 hrs
NS(=O)(=O)Cc1noc2ccccc12 [Zonisamide]	63	4				0.2	0.3	0.4	0.5	0.6	0.7	0.8	0.9		ZONISAMIDE T½ = 60 hrs
CC1(C)O[C@@H]2[C@@H](CO[C@@]3(COS(N)(=O)=O)OC(C)(C)O[C@@H]23)O1 [Topiramate]	21	2												approximately 5 μM	

Source: US20090306051A1, “Methods and compositions for the treatment of epilepsy, seizure disorders, and other CNS disorders” (priority 2004, published 2009)
